The values below are quoted from earlier work in patent US10336750B2, “Composition and methods for the treatment of CaMKK2-mediated disorders” (Duke University, priority 2015, dated 2019).

Structures are written as SMILES.

This series deals with neovascular remodeling (NVR) in experimental laser-induced CNV. The following applies: aged (16 month-old) mice, systemic depletion of macrophages, compared to sham control.

Regarding `O=P(O)(O)C(Cl)(Cl)P(=O)(O)O` [clodronate], the “NVR phenotype, lesion size and fibrosis (choroidal flatmounts by FITC-dextran)” value was “abrogation of the NVR phenotype, resulting in smaller lesions with less fibrosis”.
